# Experimental data taken from patent US8003658B2, “Quinazoline derivatives for inhibiting cancer cell growth and method for the preparation thereof” (Hanmi Holdings Co., Ltd., priority 2004, dated 2011).
# Like-named read-outs stand apart in the source and are kept apart here.
# Experiments:
# A431 (ATCC: CRL-1555) = assay: Test of cancer cell growth inhibition (SRB), A431; settings: read-out: IC50 A431
# SK-Br3 (ATCC: HTB-30) = assay: Test of cancer cell growth inhibition (SRB), SK-Br3; settings: read-out: IC50 SK-Br-3
# [1] = target: EGFR (EGFR type 1 kinase) (Homo sapiens, UniProt P00533); assay: Inhibition of EGFR enzyme (fluorescence polarization kinase assay)
# EGFR (EGFR type 1 kinase), sequence (P00533 25-1210, species assumed): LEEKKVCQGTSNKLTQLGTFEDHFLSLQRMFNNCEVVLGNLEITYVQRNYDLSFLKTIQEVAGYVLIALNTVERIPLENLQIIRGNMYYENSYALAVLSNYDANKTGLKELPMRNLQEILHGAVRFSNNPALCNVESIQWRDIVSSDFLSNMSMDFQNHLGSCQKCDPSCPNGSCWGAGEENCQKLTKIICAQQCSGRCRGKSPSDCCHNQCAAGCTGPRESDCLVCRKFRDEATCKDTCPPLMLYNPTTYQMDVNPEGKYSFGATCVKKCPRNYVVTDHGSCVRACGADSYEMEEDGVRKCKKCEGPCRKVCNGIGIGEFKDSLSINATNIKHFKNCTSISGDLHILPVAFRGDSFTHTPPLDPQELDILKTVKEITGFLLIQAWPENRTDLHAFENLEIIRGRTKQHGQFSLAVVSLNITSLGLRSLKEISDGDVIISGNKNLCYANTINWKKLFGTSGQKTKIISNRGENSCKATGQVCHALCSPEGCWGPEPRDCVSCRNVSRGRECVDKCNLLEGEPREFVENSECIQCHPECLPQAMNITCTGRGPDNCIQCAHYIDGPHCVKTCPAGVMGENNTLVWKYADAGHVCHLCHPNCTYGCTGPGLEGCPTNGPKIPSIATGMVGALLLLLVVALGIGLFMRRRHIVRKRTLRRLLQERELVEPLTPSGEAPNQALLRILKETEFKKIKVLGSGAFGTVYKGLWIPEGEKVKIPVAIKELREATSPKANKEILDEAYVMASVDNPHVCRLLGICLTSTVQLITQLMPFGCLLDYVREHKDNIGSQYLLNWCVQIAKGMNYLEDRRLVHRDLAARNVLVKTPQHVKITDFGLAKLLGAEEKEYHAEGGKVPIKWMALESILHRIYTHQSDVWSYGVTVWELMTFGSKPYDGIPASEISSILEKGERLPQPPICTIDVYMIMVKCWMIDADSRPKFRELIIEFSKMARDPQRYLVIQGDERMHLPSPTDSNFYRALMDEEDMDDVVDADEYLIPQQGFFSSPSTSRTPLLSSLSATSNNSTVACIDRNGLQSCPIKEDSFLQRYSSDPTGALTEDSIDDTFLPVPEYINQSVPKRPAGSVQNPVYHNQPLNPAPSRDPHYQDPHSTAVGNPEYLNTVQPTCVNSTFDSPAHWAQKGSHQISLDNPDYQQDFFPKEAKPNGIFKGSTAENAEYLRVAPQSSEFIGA
# Experimental: 10 μl of EGFR (EGFR type 1 kinase) was added to each well of a 96-well microplate.
# SW-620 (ATCC: CCL-227) = assay: Test of cancer cell growth inhibition (SRB), SW-620; settings: read-out: IC50 SW-620
# [2] = EGFR overexpressed A431, 72 hours, SRB
# [3] = Erb-B2 overexpressed SK-Br3, 72 hours, SRB
# [4] = SW-620 not having overexpressed EGFR and Erb-B2, 72 hours, SRB
Compound,"IC50 (A431 (ATCC: CRL-1555); Homo sapiens, A-431, 72 h) [nM]","IC50 (SK-Br3 (ATCC: HTB-30); Homo sapiens, SK-BR-3, 72 h) [nM]",IC50 [1] [nM],IC50 (A431 (ATCC: CRL-1555); [2]) [nM],IC50 (SK-Br3 (ATCC: HTB-30); [3]) [nM],IC50 (SW-620 (ATCC: CCL-227); [4]) [nM],"IC50 (SW-620 (ATCC: CCL-227); Homo sapiens, SW-620, 72 h) [nM]"
"COCC(=O)NCCC(=O)Nc1ccc2ncnc(Nc3ccc(OCc4cccc(F)c4)c(Cl)c3)c2c1 [Example 20-2, N-{4-[3-chloro-4-(3-fluoro-benzyloxy)-phenylamino]-quinazolin-6-yl}-3-(2-methoxy-acetylamino)-propionamide]",948,151,30,–,–,–,–
"CC(C)=CC(=O)NCCC(=O)Nc1ccc2ncnc(Nc3ccc(OCc4cccc(F)c4)c(Cl)c3)c2c1 [Example 29, 3-methyl-but-2-enonylic acid (2-{4-[3-chloro-4-(3-fluoro-benzyloxy)-phenylamino]-quinazolin-6-ylcarbamoyl}-ethyl)-amide]",–,–,–,310,54,> 10000,–
"C=C(C)C(=O)NCCC(=O)Nc1ccc2ncnc(Nc3ccc(OCc4cccc(F)c4)c(Cl)c3)c2c1 [Example 30, N-(2-{4-[3-chloro-4-(3-fluoro-benzyloxy)-phenylamino]-quinazolin-6-ylcarbamoyl}-ethyl)-2-methyl-acrylamide]",119,38,–,–,–,–,> 10000
"COCC(=O)NCC(OC(C)=O)C(=O)Nc1ccc2ncnc(Nc3ccc(OCc4cccc(F)c4)c(Cl)c3)c2c1 (stereo not drawn) [Example 39-2, acetic acid 1-{4-[3-chloro-4-(3-fluoro-benzyloxy)-phenylamino]-quinazolin-6-ylcarbamoyl}-2-(2-methoxy-acetylamino)-ethylester]",482,45,–,–,–,–,> 10000
"COCC(=O)NCC(O)C(=O)Nc1ccc2ncnc(Nc3ccc(OCc4cccc(F)c4)c(Cl)c3)c2c1 (stereo not drawn) [Example 40, N-{4-[3-chloro-4-(3-fluoro-benzyloxy)-phenylamino]-quinazolin-6-yl}-2-hydroxyl-3-(2-methoxy-acetylamino)-propionamide]",327,84,–,–,–,–,> 10000
"COCC(=O)NCC(C)C(=O)Nc1ccc2ncnc(Nc3ccc(OCc4cccc(F)c4)c(Cl)c3)c2c1 (stereo not drawn) [Example 42-2, N-{4-[3-chloro-4-(3-fluoro-benzyloxy)-phenylamino]-quinazolin-6-yl}-3-(2-methoxy-acetylamino)-2-methyl-propionamide]",340,102,–,–,–,–,> 10000
"C=CC(=O)NCC(C)C(=O)Nc1ccc2ncnc(Nc3ccc(OCc4cccc(F)c4)c(Cl)c3)c2c1 (stereo not drawn) [Example 44, N-(2-{4-[3-chloro-4-(3-fluoro-benzyloxy)-phenylamino]-quinazolin-6-ylcarbamoyl}-propyl)-acrylamide]",43,6,–,–,–,–,> 10000
"C=CC(=O)NCCC(=O)Nc1ccc2ncnc(Nc3ccc(F)c(Cl)c3)c2c1 [Example 54, N-{2-[4-(3-chloro-4-fluoro-phenylamino)-quinazolin-6-ylcarbamoyl]-ethyl}-acrylamide]",321,46,–,–,–,–,> 10000
"O=C(CCl)NCCC(=O)Nc1ccc2ncnc(Nc3ccc(OCc4cccc(F)c4)c(Cl)c3)c2c1 [Example 61, 3-(2-chloro-acetylamide)-N-{4-[3-chloro-4-(3-fluoro-benzyloxy)-phenylamino]-quinazolin-6-yl}-propionamide]",–,–,–,168,98,> 10000,–
"CC(C)(C)OC(=O)NCCC(=O)Nc1ccc2ncnc(Nc3ccc4c(cnn4Cc4ccccc4)c3)c2c1 [Example 77, {2-[4-(1-benzyl-1-indazol-5-ylamino)-quinazolin-6-ylcarbamoyl]-ethyl}-carbamic acid t-butylester]",–,–,–,208,86,> 10000,–
"C=CC(=O)NCCC(=O)Nc1ccc2ncnc(Nc3cncn3Cc3ccccc3)c2c1 [Example 79, N-{2-[4-(1-benzyl-1H-imidazol-5-ylamino)-quinazolin-6-ylcarbamoyl]-ethyl}-acrylamide]",65,3,–,–,–,–,> 10000
"C=CC(=O)NCCC(=O)Nc1cc2c(Nc3ccc(OCc4cccc(F)c4)c(Cl)c3)ncnc2cc1OCCCN1CCOCC1 [Example 85-2, N-{2-[4-[3-chloro-4-(3-fluoro-benzyloxy)phenylamino]-7-(3-morpholin-4-yl-propoxy)-quinazolin-6-ylcarbamoyl]-ethyl}-acrylamide]",12,3,–,–,–,–,> 10000
"COCC(=O)NCCCC(=O)Nc1ccc2ncnc(Nc3ccc(OCc4cccc(F)c4)c(Cl)c3)c2c1 [Example 87-2, N-{4-[3-chloro-4-(3-fluoro-benzyloxy)-phenylamino]-quinazolin-6-yl}-4-(2-methoxy-acetylamino)-butyramide]",95,35,–,–,–,–,> 10000
"C=CC(=O)NCCCC(=O)Nc1ccc2ncnc(Nc3ccc(OCc4cccc(F)c4)c(Cl)c3)c2c1 [Example 89, 4-acryloylamino-N-{4-[3-chloro-4-(3-fluoro-benzyloxy)-phenylamino]-quinazolin-6-yl}-butyramide]",173,19,–,–,–,–,> 10000
"N#CCC(=O)NCCCC(=O)Nc1ccc2ncnc(Nc3ccc(OCc4cccc(F)c4)c(Cl)c3)c2c1 [Example 93, N-{4-[3-chloro-4-(3-fluoro-benzyloxy)-phenylamino]-quinazolin-6-yl}-4-(2-cyano-acetylamino)-butyramide]",324,33,–,–,–,–,> 10000
"C=CC(=O)NCCCC(=O)Nc1ccc2ncnc(Nc3ccc(Oc4ccc(C)nc4)c(C)c3)c2c1 [Example 101, 4-acryloylamino-N-{4-[3-methyl-4-(6-methyl-pyridin-3-yloxy)-phenylamino]-quinazolin-6-yl}-butyramide]",786,21,–,–,–,–,> 10000
"O=C(CCl)NCCCC(=O)Nc1ccc2ncnc(Nc3ccc(OCc4cccc(F)c4)c(Cl)c3)c2c1 [Example 102, 4-(2-chloro-acetylamino)-N-{4-[3-chloro-4-(3-fluoro-benzyloxy)-phenylamino]-quinazolin-6-yl}-butyramide]",345,80,–,–,–,–,> 10000
"O=C(CN1CCOCC1)NCCCC(=O)Nc1ccc2ncnc(Nc3ccc(OCc4cccc(F)c4)c(Cl)c3)c2c1 [Example 103, N-{4-[3-chloro-4-(3-fluoro-benzyloxy)-phenylamino]-quinazolin-6-yl}-4-(2-morpholin-4-yl-acetylamino)-butyramide]",227,42,–,–,–,–,> 10000
"CN(C)CC(=O)NCCCC(=O)Nc1ccc2ncnc(Nc3ccc(OCc4cccc(F)c4)c(Cl)c3)c2c1 [Example 104, N-{4-[3-chloro-4-(3-fluoro-benzyloxy)-phenylamino]-quinazolin-6-yl}-4-(2-dimethylamino-acetylamino)-butyramide]",254,22,–,–,–,–,> 10000
"COCC(=O)NCCCCC(=O)Nc1ccc2ncnc(Nc3ccc(OCc4cccc(F)c4)c(Cl)c3)c2c1 [Example 115-2, 5-(2-methoxy-acetylamino)-pentanoic acid {4-[3-chloro-4-(3-fluoro-benzyloxy)-phenylamino]-quinazolin-6-yl}-amide]",117,38,–,–,–,–,> 10000
"CSCC(=O)NCCC(=O)Nc1ccc2ncnc(Nc3ccc(OCc4cccc(F)c4)c(Cl)c3)c2c1 [Example 117, N-{4-[3-chloro-4-(3-fluoro-benzyloxy)-phenylamino]-quinazolin-6-yl}-3-(2-methanesulfanyl-acetylamino)-propionamide]",–,–,–,336,40,> 10000,–
"CCNC(=O)NCCC(=O)Nc1ccc2ncnc(Nc3ccc(OCc4cccc(F)c4)c(Cl)c3)c2c1 [Example 123, N-{4-[3-chloro-4-(3-fluoro-benzyloxy)-phenylamino]-quinazolin-6-yl}-3-(3-ethyl-ureido)-propionamide]",240,36,–,–,–,–,> 10000
"C=CC(=O)NCCC(=O)Nc1ccc2ncnc(Nc3ccc(OCc4ccccn4)c(Cl)c3)c2c1 [Example 131, N-(2-{4-[3-chloro-4-(pyridin-2-ylmethoxy)-phenylamino]-quinazolin-6-ylcarbamoyl}-ethyl)-acrylamide]",37,3,4,–,–,–,–
"C=CC(=O)NCCC(=O)N(C)c1ccc2ncnc(Nc3ccc(OCc4cccc(F)c4)c(Cl)c3)c2c1 [Example 139-5, N-[2-({4-[3-chloro-4-(3-fluoro-benzyloxy)-phenylamino]-quinazolin-6-yl}-methyl-carbamoyl)-ethyl]-acrylamide]",69,47,5,–,–,–,–
"C=CC(=O)N(C)CCC(=O)Nc1ccc2ncnc(Nc3ccc(OCc4cccc(F)c4)c(Cl)c3)c2c1 [Example 142-2, N-(2-{4-[3-chloro-4-(3-fluoro-benzyloxy)-phenylamino]-quinazolin-6-ylcarbamoyl}-ethyl)-N-methyl-acrylamide]",19,4,2,–,–,–,–
"C=CC(=O)N(C)CCC(=O)Nc1ccc2ncnc(Nc3ccc(OCc4ccccn4)c(Cl)c3)c2c1 [Example 143, N-(2-{4-[3-chloro-4-(pyridin-2-ylmethoxy)-phenylamino]-quinazolin-6-ylcarbamoyl}-ethyl)-N-methyl-acrylamide]",10,2,1,–,–,–,–
"C#Cc1cccc(Nc2ncnc3cc(OCCOC)c(OCCOC)cc23)c1 [Tarceva, reference compound]",59,891,–,–,–,–,> 10000
